Laboratory results reported in US20060040122A1, “Antimicrobial drywall” (Verichem, Inc., priority 2004, published 2006).
Structures can show the parent of a compound that is named as a salt.

What was measured:
[1] = test system: Wild strain - Alternaria sp.; assay: Minimum Inhibitory Concentration synergy test on fungi (Kull et al procedure); type: cell-based
From the text: (§1) The procedure followed is adapted from and follows very closely, the procedure described in the Kull et al article. The concentrations listed in Table 1 are the Minimum Inhibitory Concentrations.
(§2) In Table 3, synergism test results are summarized for a 1:26 weight ratio of OPP:DGH against three molds, using the same test system as for Table 1
(§3) Synergism has also been shown for combinations of DGH and NaMetam (sodium methyldithiocarbamate). The Table 5 results were obtained in a manner similar to those of Table 1: […]

Aspergillus niger = assay: as above; type: cell-based
From the text: as §1, §2, §3

Mixed inoculum = assay: as above; type: cell-based
From the text: as §1, §2, §3

Penicillium pinophillum = assay: as above; type: cell-based
From the text: as §1, §2, §3

[2] = test system: artificial bacterial consortium containing approximately equal numbers of six bacterial strains; assay: Synergism dose protocol: growth inhibition of a bacterial consortium in synthetic white water (O.D. 650 nm); type: cell-based; conditions: end point 50% inhibition of bacterial growth; pH 5.5; SI less than 1 = synergism
Description: O-phenylphenol was tested in combination with DGH. The synergism of the blends was determined using a dose protocol. The combinations were evaluated in synthetic white water with pH value of 5.5. The materials were tested against an artificial bacterial consortium containing approximately equal numbers of six bacterial strains. Although the test strains are representative of organisms present in paper mill systems, the effect is not limited to these bacteria. Two of the strains were Kiebsiella pneumoia (ATCC 13883) and Pseudomonas aeruginosa (ATCC 15442). […] Optical density (O>D>) readings at 650 nm were taken initially (t0) and after 4 hours (t4) of incubation. […]
The inhibition values can be plotted versus dosage for each active and the particular blend. […] In the examples (tables) below, the 50 values are expressed as parts per million (ppm) of active material.
The synergism index (SI) was calculated by the equation below, which was proposed by F. C. […]
QA=quantity of compound A in mixture, producing the end point
Qa=quantity of compound A1 acting alone, producing the end point
QB=quantity of compound B in mixture, producing the end point
Qb=quantity of compound B1 acting alone, producing the end point If SI is less than 1, synergism exists; if SI is greater than 1, antagonism exists; if SI is equal to 1, an additive effect exists.

[3] = test system: Aureobasidium pullulans ATCC 9348, Aspergillus niger ATCC 6275, Penicillium sp. ATCC 9849; assay: ASTM Test Method D-3273 00, resistance to surface mold fungi and mildew, in adhesives; conditions: similar tests, same organisms; in Titebond Solvent Free Fast Grab FRP Adhesive and Titebond Solvent Free Subfloor Adhesive
From the text: In addition to experiments as described above, tests were made to compare combinations of DGH (dodecyl guanidine hydrochloride) and OPP against microorganisms known to generate what is commonly known as mildew, when used in caulking and/or adhesive materials used in bathtubs, showers and the like. ASTM (American Society for Testing Materials) Test Method D-3273 00, dealing with resistance to surface mold fungi and mildew was used. Generally, this is an accelerated test calling for a test chamber held at a relative humidity of 95 to 98% and a temperature of 32.5±1° C. (90±2° F.).
Five commercial adhesive compositions known to be susceptible to mildew growth were tested using the microorgainsms Aureobasidium pullulans ATCC 9348, Aspergillus niger ATCC 6275, Penicillium sp. ATCC 9849.
Following this test, a composition comprising 10 g of OPP and 30 g of dodecyl guanidine hydrochloride (DGH) was incorporated into samples of Titebond™ Professional Tub Surround Adhesive at concentrations of 150, 250, 500, 750, and 1000 ppm and the adhesive was tested in the same manner as in Table 2. At 28 days, all of the DGH/OPP compositions were rated at 10.

[4] = Table 1, Minimum Inhibitory Concentration, Wild strain - Alternaria sp.
[5] = Table 3, Wild strain - Atlernaria sp.
[6] = Table 1, Minimum Inhibitory Concentration
[7] = Table 1, Minimum Inhibitory Concentration, Mixed inoculum
[8] = Table 1, Minimum Inhibitory Concentration, Penicillium pinophillum
[9] = Table 3, Penicillum pinophillum
[10] = Table 5, Wild Strain - Alternaria sp.
[11] = Table 5, Penicillum pinophillum

Oc1ccccc1-c1ccccc1 [OPP, o-phenylphenol]
Concentration of OPP alone [1, 4]: 15.6
OPP conc (ppm) alone [1, 5]: 15.6 ppm
Concentration of OPP alone (Aspergillus niger; [6]): 15.6
OPP conc (ppm) alone (Aspergillus niger; Table 3): 15.6 ppm
Concentration of OPP alone (Mixed inoculum; [7]): 15.6
OPP conc (ppm) alone (Mixed inoculum; Table 3, Mixed inoculum): 15.6 ppm
Concentration of OPP alone (Penicillium pinophillum; [8]): 15.6
OPP conc (ppm) alone (Penicillium pinophillum; [9]): 15.6 ppm

CCCCCCCCCCCCNC(=N)N [DGH, Dodecyl guanidine hydrochloride]
Synergy Index [2]: 1.00
Concentration of DGH alone [1, 4]: 125
DGH conc (ppm) alone [1, 5]: 125 ppm
Conc. Of DGH alone [1, 10]: 62.5
Concentration of DGH alone (Aspergillus niger; [6]): 62.5
DGH conc (ppm) alone (Aspergillus niger; Table 3): 62.5 ppm
Conc. Of DGH alone (Aspergillus niger; Table 5): 62.5
Concentration of DGH alone (Mixed inoculum; [7]): 125
DGH conc (ppm) alone (Mixed inoculum; Table 3, Mixed inoculum): 125 ppm
Conc. Of DGH alone (Mixed inoculum; Table 5, Mixed Inoculum): 62.5
Concentration of DGH alone (Penicillium pinophillum; [8]): 62.5
DGH conc (ppm) alone (Penicillium pinophillum; [9]): 62.5 ppm
Conc. Of DGH alone (Penicillium pinophillum; [11]): 62.5

[Na+].[O-]c1ccccc1-c1ccccc1 [NaOPP, sodium orthophenylphenate]
Synergy Index [2]: 1.00

CNC(=S)[S-].[Na+] [NaMetam, sodium methyldithiocarbamate]
Conc of NaMetam alone [1, 10]: 125
Conc of NaMetam alone (Aspergillus niger; Table 5): 31.2
Conc of NaMetam alone (Mixed inoculum; Table 5, Mixed Inoculum): 250
Conc of NaMetam alone (Penicillium pinophillum; [11]): 31.2

dodecyl guanidine acetate [DGA]
mildew inhibition [3]: effective mildew inhibitors
